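Five compound concentrations were applied to cells in 96-well plates for 48 hours; endpoints were derived by simple linear interpolation of the resulting dose-response curve. GI50 marks 50% less growth.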 The source made the active and inactive calls. No stated cut-off is given here; in the data, active = GI50 up to about 1.1 µM and inactive = higher.
Key:
Assay in all cases: DTP human tumour cell line panel, 48 h
[1] = tested on: 786-0
[2] = tested on: COLO 205
[3] = tested on: EKVX
[4] = tested on: HT-29
[5] = tested on: KM12
[6] = tested on: LOX IMVI
[7] = tested on: M14
[8] = tested on: MCF7
[9] = tested on: MDA-N
[10] = tested on: MOLT-4
[11] = tested on: NCI-H522
[12] = tested on: OVCAR-5
[13] = tested on: SF-268
[14] = tested on: SK-MEL-28
[15] = tested on: SK-OV-3
[16] = tested on: SN12C
[17] = tested on: UACC-62
[18] = tested on: OVCAR-4
[19] = tested on: HCC 2998
[20] = tested on: K562

CCOC(=O)c1cc(=O)c2cccc3c2n1CCS3
GI50 [1]: > 100 µM (inactive) | GI50 [2]: > 100 µM (inactive) | GI50 [3]: > 100 µM (inactive) | GI50 [4]: > 100 µM (inactive) | GI50 [5]: > 100 µM (inactive) | GI50 [6]: > 100 µM (inactive) | GI50 [7]: > 100 µM (inactive) | GI50 [8]: > 100 µM (inactive) | GI50 [9]: > 100 µM (inactive) | GI50 [10]: > 100 µM (inactive) | GI50 [11]: 91.4 µM (inactive) | GI50 [12]: > 100 µM (inactive) | GI50 [13]: > 100 µM (inactive) | GI50 [14]: > 100 µM (inactive) | GI50 [15]: > 100 µM (inactive) | GI50 [16]: > 100 µM (inactive) | GI50 [17]: > 100 µM (inactive)

COCO[C@@H]1C[C@H]2C(=O)Nc3ccccc3C(=O)N2C1
GI50 [1]: > 100 µM (inactive) | GI50 [2]: 29.3 µM (inactive) | GI50 [3]: > 100 µM (inactive) | GI50 [4]: 85.3 µM (inactive) | GI50 [5]: > 100 µM (inactive) | GI50 [6]: 29.2 µM (inactive) | GI50 [7]: > 100 µM (inactive) | GI50 [8]: 54.1 µM (inactive) | GI50 [9]: 39.2 µM (inactive) | GI50 [11]: 16.2 µM (inactive) | GI50 [18]: > 100 µM (inactive) | GI50 [12]: 61.5 µM (inactive) | GI50 [13]: 36.4 µM (inactive) | GI50 [14]: > 100 µM (inactive) | GI50 [15]: > 100 µM (inactive) | GI50 [16]: 88.1 µM (inactive) | GI50 [17]: > 100 µM (inactive)

CCCCCCCCCCCCCCCCOP(=O)([O-])OCC[N+](C)(C)C1CC(C)(C)N(O)C(C)(C)C1
GI50 [1]: > 100 µM (inactive) | GI50 [2]: > 100 µM (inactive) | GI50 [3]: > 100 µM (inactive) | GI50 [19]: > 100 µM (inactive) | GI50 [4]: > 100 µM (inactive) | GI50 [5]: > 100 µM (inactive) | GI50 [7]: > 100 µM (inactive) | GI50 [8]: > 100 µM (inactive) | GI50 [11]: > 100 µM (inactive) | GI50 [18]: > 100 µM (inactive) | GI50 [12]: > 100 µM (inactive) | GI50 [13]: > 100 µM (inactive) | GI50 [15]: > 100 µM (inactive) | GI50 [17]: > 100 µM (inactive)

O=C1CCC2SC1CCC2=O
GI50 [1]: > 100 µM (inactive) | GI50 [2]: > 100 µM (inactive) | GI50 [3]: > 100 µM (inactive) | GI50 [19]: > 100 µM (inactive) | GI50 [4]: > 100 µM (inactive) | GI50 [20]: > 100 µM (inactive) | GI50 [5]: > 100 µM (inactive) | GI50 [6]: > 100 µM (inactive) | GI50 [7]: > 100 µM (inactive) | GI50 [8]: > 100 µM (inactive) | GI50 [10]: > 100 µM (inactive) | GI50 [11]: > 100 µM (inactive) | GI50 [18]: > 100 µM (inactive) | GI50 [12]: > 100 µM (inactive) | GI50 [13]: > 100 µM (inactive) | GI50 [14]: > 100 µM (inactive) | GI50 [15]: > 100 µM (inactive) | GI50 [16]: > 100 µM (inactive)

Cc1[nH]nc(C(=O)N/N=C/c2ccccc2Cl)c1/N=N\N(C)C
GI50 [1]: 5.04 µM (inactive) | GI50 [2]: > 100 µM (inactive) | GI50 [3]: 12.4 µM (inactive) | GI50 [19]: > 100 µM (inactive) | GI50 [4]: > 53.3 µM (inactive) | GI50 [20]: 0.802 µM (active) | GI50 [5]: 2.86 µM (inactive) | GI50 [6]: > 76.4 µM (inactive) | GI50 [7]: > 100 µM (inactive) | GI50 [10]: 2.2 µM (inactive) | GI50 [11]: > 61.4 µM (inactive) | GI50 [18]: 14.9 µM (inactive) | GI50 [12]: 18 µM (inactive) | GI50 [13]: > 100 µM (inactive) | GI50 [14]: > 100 µM (inactive) | GI50 [15]: > 100 µM (inactive) | GI50 [16]: > 54.3 µM (inactive) | GI50 [17]: > 100 µM (inactive)

C=C(Br)CNC(=O)Nc1ccc(Cl)c(Cl)c1
GI50 [1]: 16 µM (inactive) | GI50 [2]: 16.9 µM (inactive) | GI50 [3]: 28.1 µM (inactive) | GI50 [19]: 18.5 µM (inactive) | GI50 [4]: 25.1 µM (inactive) | GI50 [20]: 23.8 µM (inactive) | GI50 [5]: 17.3 µM (inactive) | GI50 [6]: 19.7 µM (inactive) | GI50 [7]: 22.2 µM (inactive) | GI50 [9]: 27.3 µM (inactive) | GI50 [10]: 26.2 µM (inactive) | GI50 [11]: 18.6 µM (inactive) | GI50 [18]: 29.5 µM (inactive) | GI50 [12]: 33.1 µM (inactive) | GI50 [13]: 27.3 µM (inactive) | GI50 [14]: 28.1 µM (inactive) | GI50 [15]: 29 µM (inactive) | GI50 [16]: 25.2 µM (inactive) | GI50 [17]: 18.8 µM (inactive)

Clc1ccc(CN2COc3c(cc(Cl)c4cccnc34)C2)cc1
GI50 [1]: 2.74 µM (inactive) | GI50 [2]: 16.2 µM (inactive) | GI50 [3]: 4.7 µM (inactive) | GI50 [19]: 4.3 µM (inactive) | GI50 [4]: 11.9 µM (inactive) | GI50 [20]: 1.52 µM (inactive) | GI50 [5]: 2.37 µM (inactive) | GI50 [6]: 1.38 µM (inactive) | GI50 [7]: 1.68 µM (inactive) | GI50 [10]: 1.7 µM (inactive) | GI50 [11]: 1.6 µM (inactive) | GI50 [18]: 3.33 µM (inactive) | GI50 [12]: 2.24 µM (inactive) | GI50 [13]: 2.93 µM (inactive) | GI50 [14]: 2.57 µM (inactive) | GI50 [15]: 2.77 µM (inactive) | GI50 [16]: 4.23 µM (inactive) | GI50 [17]: 1.55 µM (inactive)

Cc1ccc(-[n+]2cc([O-])on2)cc1
GI50 [1]: > 100 µM (inactive) | GI50 [3]: > 100 µM (inactive) | GI50 [4]: > 100 µM (inactive) | GI50 [20]: > 100 µM (inactive) | GI50 [5]: > 100 µM (inactive) | GI50 [6]: > 100 µM (inactive) | GI50 [7]: > 100 µM (inactive) | GI50 [9]: > 100 µM (inactive) | GI50 [10]: > 100 µM (inactive) | GI50 [11]: > 100 µM (inactive) | GI50 [18]: > 100 µM (inactive) | GI50 [12]: > 100 µM (inactive) | GI50 [13]: > 100 µM (inactive) | GI50 [14]: > 100 µM (inactive) | GI50 [16]: > 100 µM (inactive) | GI50 [17]: > 100 µM (inactive)
